# Tested on: 941728-121-R-J1-PDC complex spheroid viability
# Test: Anticancer human tumor 941728-121-R-J1-PDC patient-derived lung adenocarcinoma cell line growth inhibition [RAS]
# Details: for IC50: curve of first compound; for viability, T/C: stronger effect = lower value
# Summary of the method: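 Agents were tested in combination matrices in half-log decrements from a top concentration at or near clinical Cmax (10 microM if undetermined). Targets were multi-cell spheroids of tumour lines plus HUVEC and MSC stromal cells.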
# [1] = second compound 0.000949 µM, first compound 0.0316 µM
# [2] = second compound 0.000949 µM, first compound 0.1 µM
# [3] = second compound 0.000949 µM, first compound 0.316 µM
# [4] = second compound 0.000949 µM, first compound 1 µM
# [5] = second compound 0.000949 µM, first compound 3.16 µM
# [6] = second compound 0.000949 µM, first compound 10 µM
# [7] = second compound 0.003 µM, first compound 0.0316 µM
# [8] = second compound 0.003 µM, first compound 0.1 µM
# [9] = second compound 0.003 µM, first compound 0.316 µM
# [10] = second compound 0.003 µM, first compound 1 µM
# [11] = second compound 0.003 µM, first compound 3.16 µM
# [12] = second compound 0.003 µM, first compound 10 µM
# [13] = second compound 0.00949 µM, first compound 0.0316 µM
# [14] = second compound 0.00949 µM, first compound 0.1 µM
# [15] = second compound 0.00949 µM, first compound 0.316 µM
# [16] = second compound 0.00949 µM, first compound 1 µM
# [17] = second compound 0.00949 µM, first compound 3.16 µM
# [18] = second compound 0.00949 µM, first compound 10 µM
# [19] = second compound 0.03 µM, first compound 0.0316 µM
# [20] = second compound 0.03 µM, first compound 0.1 µM
# [21] = second compound 0.03 µM, first compound 0.316 µM
# [22] = second compound 0.03 µM, first compound 1 µM
# [23] = second compound 0.03 µM, first compound 3.16 µM
# [24] = second compound 0.03 µM, first compound 10 µM
# [25] = second compound 0.0949 µM, first compound 0.0316 µM
# [26] = second compound 0.0949 µM, first compound 0.1 µM
# [27] = second compound 0.0949 µM, first compound 0.316 µM
# [28] = second compound 0.0949 µM, first compound 1 µM
# [29] = second compound 0.0949 µM, first compound 3.16 µM
# [30] = second compound 0.0949 µM, first compound 10 µM
# [31] = second compound 0.3 µM, first compound 0.0316 µM
# [32] = second compound 0.3 µM, first compound 0.1 µM
# [33] = second compound 0.3 µM, first compound 0.316 µM
# [34] = second compound 0.3 µM, first compound 1 µM
# [35] = second compound 0.3 µM, first compound 3.16 µM
# [36] = second compound 0.3 µM, first compound 10 µM
# 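Also: spheroids exposed to compounds for 7 days before readout.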
# 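For viability, T/C in this document: 100% = DMSO vehicle control viability.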
smiles,measurement,setting,value
CC1(O)CCCC1n1c(=O)c(C(F)F)cc2cnc(NC3CCN(S(C)(=O)=O)CC3)nc21 (stereo unspecified) + CCn1c(-c2cc(N3CCN(C)CC3)cnc2C(C)OC)c2c3cc(ccc31)-c1csc(n1)CC(NC(=O)C1CC1C)C(=O)N1CCCC(N1)C(=O)OCC(C)(C)C2,IC50,second compound 0.000949 µM,< 31.6 nM
same,IC50,second compound 0.003 µM,< 31.6 nM
same,IC50,second compound 0.00949 µM,< 31.6 nM
same,IC50,second compound 0.03 µM,< 31.6 nM
same,IC50,second compound 0.0949 µM,< 31.6 nM
same,IC50,second compound 0.3 µM,< 31.6 nM
same,"viability, T/C",[1],28.6%
same,"viability, T/C",[2],30.3%
same,"viability, T/C",[3],24.8%
same,"viability, T/C",[4],38.3%
same,"viability, T/C",[5],34.9%
same,"viability, T/C",[6],31.3%
same,"viability, T/C",[7],24.4%
same,"viability, T/C",[8],20.1%
same,"viability, T/C",[9],18.4%
same,"viability, T/C",[10],22.3%
same,"viability, T/C",[11],23.3%
same,"viability, T/C",[12],26.9%
same,"viability, T/C",[13],16.5%
same,"viability, T/C",[14],13.6%
same,"viability, T/C",[15],15.9%
same,"viability, T/C",[16],17.5%
same,"viability, T/C",[17],15.6%
same,"viability, T/C",[18],28.4%
same,"viability, T/C",[19],13.4%
same,"viability, T/C",[20],12.6%
same,"viability, T/C",[21],13.5%
same,"viability, T/C",[22],14.4%
same,"viability, T/C",[23],9.96%
same,"viability, T/C",[24],27.3%
same,"viability, T/C",[25],11.1%
same,"viability, T/C",[26],14.5%
same,"viability, T/C",[27],14.3%
same,"viability, T/C",[28],14.8%
same,"viability, T/C",[29],9.56%
same,"viability, T/C",[30],27.7%
same,"viability, T/C",[31],10.4%
same,"viability, T/C",[32],11.6%
same,"viability, T/C",[33],13.3%
same,"viability, T/C",[34],15.2%
same,"viability, T/C",[35],12.2%
same,"viability, T/C",[36],23.8%
CCC(CC)c1cc(NC2CCC(N)C2)n2nccc2n1 (stereo unspecified) + CCn1c(-c2cc(N3CCN(C)CC3)cnc2C(C)OC)c2c3cc(ccc31)-c1csc(n1)CC(NC(=O)C1CC1C)C(=O)N1CCCC(N1)C(=O)OCC(C)(C)C2,IC50,second compound 0.000949 µM,< 31.6 nM
same,IC50,second compound 0.003 µM,< 31.6 nM
same,IC50,second compound 0.00949 µM,< 31.6 nM
same,IC50,second compound 0.03 µM,< 31.6 nM
same,IC50,second compound 0.0949 µM,< 31.6 nM
same,IC50,second compound 0.3 µM,< 31.6 nM
same,"viability, T/C",[1],29.4%
same,"viability, T/C",[2],28.1%
same,"viability, T/C",[3],27.6%
same,"viability, T/C",[4],32.5%
same,"viability, T/C",[5],15%
same,"viability, T/C",[6],41.4%
same,"viability, T/C",[7],23.7%
same,"viability, T/C",[8],21.6%
same,"viability, T/C",[9],20.7%
same,"viability, T/C",[10],26.8%
same,"viability, T/C",[11],12.4%
same,"viability, T/C",[12],39.3%
same,"viability, T/C",[13],18%
same,"viability, T/C",[14],16.2%
same,"viability, T/C",[15],20.5%
same,"viability, T/C",[16],24.7%
same,"viability, T/C",[17],14.5%
same,"viability, T/C",[18],41.5%
same,"viability, T/C",[19],14.8%
same,"viability, T/C",[20],15.4%
same,"viability, T/C",[21],19%
same,"viability, T/C",[22],21.2%
same,"viability, T/C",[23],19.3%
same,"viability, T/C",[24],51%
same,"viability, T/C",[25],14.2%
same,"viability, T/C",[26],15%
same,"viability, T/C",[27],16.5%
same,"viability, T/C",[28],21.4%
same,"viability, T/C",[29],18.7%
same,"viability, T/C",[30],50.8%
same,"viability, T/C",[31],13.3%
same,"viability, T/C",[32],15.2%
same,"viability, T/C",[33],17.8%
same,"viability, T/C",[34],20%
same,"viability, T/C",[35],13.1%
same,"viability, T/C",[36],49.1%
Cc1nc(N2CCC3(CC2)COC(C)C3N)c(CO)nc1Sc1ccnc(N)c1Cl (stereo unspecified) + CCn1c(-c2cc(N3CCN(C)CC3)cnc2C(C)OC)c2c3cc(ccc31)-c1csc(n1)CC(NC(=O)C1CC1C)C(=O)N1CCCC(N1)C(=O)OCC(C)(C)C2,IC50,second compound 0.000949 µM,< 31.6 nM
same,IC50,second compound 0.003 µM,< 31.6 nM
same,IC50,second compound 0.00949 µM,< 31.6 nM
same,IC50,second compound 0.03 µM,< 31.6 nM
same,IC50,second compound 0.0949 µM,< 31.6 nM
same,IC50,second compound 0.3 µM,< 31.6 nM
same,"viability, T/C",[1],25.1%
same,"viability, T/C",[2],21%
same,"viability, T/C",[3],14.6%
same,"viability, T/C",[4],19.2%
same,"viability, T/C",[5],18.7%
same,"viability, T/C",[6],12.9%
same,"viability, T/C",[7],19.2%
same,"viability, T/C",[8],17.7%
same,"viability, T/C",[9],13.3%
same,"viability, T/C",[10],13.4%
same,"viability, T/C",[11],13.6%
same,"viability, T/C",[12],9.72%
same,"viability, T/C",[13],14.6%
same,"viability, T/C",[14],12%
same,"viability, T/C",[15],12.8%
same,"viability, T/C",[16],13.6%
same,"viability, T/C",[17],11.9%
same,"viability, T/C",[18],11%
same,"viability, T/C",[19],11.9%
same,"viability, T/C",[20],15.5%
same,"viability, T/C",[21],13.9%
same,"viability, T/C",[22],13.2%
same,"viability, T/C",[23],9.2%
same,"viability, T/C",[24],13.5%
same,"viability, T/C",[25],13.3%
same,"viability, T/C",[26],14.4%
same,"viability, T/C",[27],12.8%
same,"viability, T/C",[28],14.3%
same,"viability, T/C",[29],9.5%
same,"viability, T/C",[30],11.1%
same,"viability, T/C",[31],13.1%
same,"viability, T/C",[32],12.8%
same,"viability, T/C",[33],12.6%
same,"viability, T/C",[34],11.2%
same,"viability, T/C",[35],12%
same,"viability, T/C",[36],13.1%

# Source: PubChem BioAssay AID2060896 (Molecular Pharmacology Branch, DTP, NCI, 2025)
